In this assay the target is T1, Kras and SOS1 (biotin-tagged human Kras loaded with GDP, His-tagged human SOS1) (Homo sapiens, UniProt P01116, G12D).
T1 construct: made in house; host or cells: E. coli (stated for Kras only)
The assay is described as follows: Protein-protein interaction inhibition between Kras and SOS1 (KrasGl2D-SOS PPI) using AlphaScreen. In kind it is binding. The conditions noted are these: AlphaScreen; biotin-tagged human Kras loaded with GDP, His-tagged human SOS1; read-out: KRAS G12D-SOS PPI IC50. In outline: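 Kras was produced in E. coli, purified, then loaded with GDP. It was paired via streptavidin acceptor beads with His-SOS1 held on nickel donor beads, and proximity signal at 520-620 nm was read after 680 nm illumination.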
For orientation: Alpha assays give light when donor and acceptor beads are brought close together.

The structures appear in SMILES notation. Positions of bridges follow the written chain, without caps; N, C: chain ends. Non-standard residues stand in square brackets, D forms with d. Residues, ends and D or L forms follow the SMILES beside them. *: point of attachment. NMeAbu(3,3-F2-piperidino) = CN[C@@H](CCN1CCCC(F)(F)C1)C(=O)O; hPhe(3-Cl-4-CF3) = N[C@@H](CCc1ccc(C(F)(F)F)c(Cl)c1)C(=O)O; hPhe(3-F,4-CF3) = N[C@@H](CCc1ccc(C(F)(F)F)c(F)c1)C(=O)O; hPhe(4-CF3) = N[C@@H](CCc1ccc(C(F)(F)F)cc1)C(=O)O; NMePhe(4-Cl) = CN[C@@H](Cc1ccc(Cl)cc1)C(=O)O; Abu(4,4,4-F3) = N[C@@H](CC(F)(F)F)C(=O)O; NMeGly(cPent) = CN[C@H](C(=O)O)C1CCCC1; dαMeGly(allyl) = C=CC[C@@](C)(N)C(=O)O; Phe(2-F) = N[C@@H](Cc1ccccc1F)C(=O)O; NMeY = CN[C@@H](Cc1ccc(O)cc1)C(=O)O; NMeCha = CN[C@@H](CC1CCCCC1)C(=O)O; Azetidine(3,3-F2) = FC1(F)CN(*)C1; NMeF = CN[C@@H](Cc1ccccc1)C(=O)O; NMeD = CN[C@@H](CC(=O)O)C(=O)O; NMeL = CN[C@@H](CC(C)C)C(=O)O; NMeV = CN[C@H](C(=O)O)C(C)C; d(β3hA) = C[C@@H](N)CC(=O)O; NMeS = CN[C@@H](CO)C(=O)O; Pip = O=C(O)[C@@H]1CCCCN1; NMeA = CN[C@@H](C)C(=O)O; Nle = CCCC[C@H](N)C(=O)O; Piperidide = C1CCN(*)CC1; Pyrrolidide = C1CCN(*)C1; dNMeA = CN[C@H](C)C(=O)O; Ac5c = NC1(C(=O)O)CCCC1; Aze = O=C(O)[C@@H]1CCN1; Aib = CC(C)(N)C(=O)O; Isopentyl = CC(C)CC*; Sar = CNCC(=O)O

Consider nine compounds from US12371454B2, “Cyclic peptide compound having Kras inhibitory action” (priority 2019, dated 2025).

T1 sequence (P01116 1-188 isoform P01116-2 G12D): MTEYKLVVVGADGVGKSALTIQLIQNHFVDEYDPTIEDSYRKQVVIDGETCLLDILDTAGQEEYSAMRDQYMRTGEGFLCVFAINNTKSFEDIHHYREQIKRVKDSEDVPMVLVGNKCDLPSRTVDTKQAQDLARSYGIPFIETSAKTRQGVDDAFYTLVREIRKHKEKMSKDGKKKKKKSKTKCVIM

`CC[C@H](C)[C@@H]1NC(=O)[C@H](C)N(C)C(=O)C[C@@H](C)NC(=O)[C@H](CC(C)C)N(C)C(=O)C(C)(C)NC(=O)[C@@H]2CCCN2C(=O)[C@H](CCc2ccc(C(F)(F)F)cc2)NC(=O)CN(C)C(=O)[C@H](Cc2ccc(Cl)cc2)N(C)C(=O)CN(C)C(=O)CN(C)C1=O` [Compound 664] (cyclo([Aib][NMeL][d(β3hA)][NMeA]I[Sar][Sar][NMePhe(4-Cl)][Sar][hPhe(4-CF3)]P)): the IC50 (commonly the concentration needed to halve the response being measured) was 25 nM.
Consider `C=CC[C@@]1(C)NC(=O)[C@@H]2CCCN2C(=O)[C@H](CCc2ccc(C(F)(F)F)c(Cl)c2)NC(=O)CN(C)C(=O)[C@H](CC2CCCCC2)N(C)C(=O)CN(C)C(=O)CN(C)C(=O)[C@H]([C@@H](C)CC)NC(=O)[C@H](CC(C)C)N(C)C(=O)C[C@@H](C)NC(=O)[C@H](C(C)C)N(C)C1=O` [Compound 665] (cyclo(I[Sar][Sar][NMeCha][Sar][hPhe(3-Cl-4-CF3)]P[dαMeGly(allyl)][NMeV][d(β3hA)][NMeL])), for which the IC50 stood at 37 nM.
Then `CC[C@H](C)[C@@H]1NC(=O)[C@H](C)N(C)C(=O)C[C@@H](C)NC(=O)[C@H](C(C)C)N(C)C(=O)C2(CCCC2)NC(=O)[C@@H]2CCCN2C(=O)[C@H](CCc2ccc(C(F)(F)F)c(Cl)c2)NC(=O)[C@H]2CCCN2C(=O)[C@H](CC2CCCCC2)N(C)C(=O)[C@@H]2CCCN2C(=O)CN(C)C1=O` [Compound 666] (cyclo([Ac5c][NMeV][d(β3hA)][NMeA]I[Sar]P[NMeCha][dP][hPhe(3-Cl-4-CF3)]P)), with 25 nM.
Then `CC[C@H](C)[C@@H]1NC(=O)[C@@H]2CCCCN2C(=O)C[C@@H](C(=O)N2CCCCC2)N(C)C(=O)[C@H](C(C)C)N(C)C(=O)C2(CCCC2)NC(=O)[C@@H]2CCCN2C(=O)[C@H](CCc2ccc(C(F)(F)F)c(F)c2)NC(=O)CN(C)C(=O)[C@H](CC2CCCCC2)N(C)C(=O)CN(C)C(=O)CN(C)C1=O` [Compound 670] ([Pip]I[Sar][Sar][NMeCha][Sar][hPhe(3-F,4-CF3)]P[Ac5c][NMeV][NMeD]-Piperidide; lactam N-11), with 5.1 nM; and `CC[C@H](C)[C@@H]1NC(=O)[C@H](C)N(C)C(=O)C[C@@H](C)NC(=O)[C@H](C2CCCC2)N(C)C(=O)C2(CCCC2)NC(=O)[C@@H]2CCCN2C(=O)[C@H](CCc2ccc(C(F)(F)F)c(Cl)c2)NC(=O)[C@@H](C)N(C)C(=O)[C@H](Cc2ccccc2)N(C)C(=O)[C@@H]2CCN2C(=O)[C@H](C)N(C)C1=O` [Compound 671] (cyclo([Ac5c][NMeGly(cPent)][d(β3hA)][NMeA]I[NMeA][Aze][NMeF][dNMeA][hPhe(3-Cl-4-CF3)]P)), with 52 nM.
Then `CC[C@H](C)[C@@H]1NC(=O)[C@H](C)N(C)C(=O)C[C@@H](C(=O)N2CCCC2)NC(=O)[C@H](CC(C)C)N(C)C(=O)[C@H](COCCC(C)C)N(C)C(=O)[C@H](CC(C)C)NC(=O)[C@H](CCc2ccc(C(F)(F)F)cc2)NC(=O)CN(C)C(=O)[C@H](Cc2ccc(Cl)cc2)N(C)C(=O)CN(C)C(=O)CN(C)C1=O` [Compound 675] ([NMeA]I[Sar][Sar][NMePhe(4-Cl)][Sar][hPhe(4-CF3)]L[NMeS](Isopentyl)[NMeL]D-Pyrrolidide; lactam N-11), with 59 nM; and `CC[C@H](C)[C@@H]1NC(=O)[C@H](C)N(C)C(=O)C[C@@H](C(=O)N2CCCCC2)N(C)C(=O)[C@H](C(C)C)N(C)C(=O)[C@H](CC(F)(F)F)NC(=O)[C@H](CC(=O)N2CC(F)(F)C2)N(C)C(=O)[C@H](CCc2ccc(C(F)(F)F)c(Cl)c2)NC(=O)CN(C)C(=O)[C@H](CC2CCCCC2)N(C)C(=O)CN(C)C(=O)CN(C)C1=O` [Compound 679] ([NMeA]I[Sar][Sar][NMeCha][Sar][hPhe(3-Cl-4-CF3)][NMeD](Azetidine(3,3-F2))[Abu(4,4,4-F3)][NMeV][NMeD]-Piperidide; lactam N-11), with 37 nM; and `CCCC[C@@H]1NC(=O)[C@H](Cc2ccccc2F)NC(=O)CN(C)C(=O)[C@H](Cc2ccc(OC)cc2)N(C)C(=O)CN(C)C(=O)CN(C)C(=O)[C@H]([C@@H](C)CC)NC(=O)[C@H](CC(C)C)N(C)C(=O)C[C@@H](C(=O)N2CCCCC2)N(C)C(=O)[C@H](CC(C)C)NC(=O)[C@H](Cc2ccc(OC)cc2)N(C)C1=O` [Compound 681] ([NMeL]I[Sar][Sar][NMeY](Me)[Sar][Phe(2-F)][Nle][NMeY](Me)L[NMeD]-Piperidide; lactam N-11), with 5.9 nM.
Turning to `CC[C@H](C)[C@@H]1NC(=O)[C@H](C)N(C)C(=O)C[C@@H](C(=O)N2CCCCC2)N(C)C(=O)[C@H](C(C)C)N(C)C(=O)C2(CCCC2)NC(=O)[C@H](CCN2CCCC(F)(F)C2)N(C)C(=O)[C@H](CCc2ccc(C(F)(F)F)c(Cl)c2)NC(=O)CN(C)C(=O)[C@H](CC2CCCCC2)N(C)C(=O)[C@@H]2CCN2C(=O)[C@H](C)N(C)C1=O` [Compound 682] ([NMeA]I[NMeA][Aze][NMeCha][Sar][hPhe(3-Cl-4-CF3)][NMeAbu(3,3-F2-piperidino)][Ac5c][NMeV][NMeD]-Piperidide; lactam N-11), the IC50 worked out at 20 nM.
